Experimental data taken from ChEMBL document CHEMBL2021889, “Multipotent MAO and cholinesterase inhibitors for the treatment of Alzheimer's disease: synthesis, pharmacological analysis and molecular modeling of heterocyclic substituted alkyl and cycloalkyl propargyl amine” (Eur J Med Chem, 2012).

Experiments:
[1] = molecular target: T1, Amine oxidase [flavin-containing] B (Rattus norvegicus, UniProt P19643); experiment: biochemical
T1 sequence (P19643 whole entry): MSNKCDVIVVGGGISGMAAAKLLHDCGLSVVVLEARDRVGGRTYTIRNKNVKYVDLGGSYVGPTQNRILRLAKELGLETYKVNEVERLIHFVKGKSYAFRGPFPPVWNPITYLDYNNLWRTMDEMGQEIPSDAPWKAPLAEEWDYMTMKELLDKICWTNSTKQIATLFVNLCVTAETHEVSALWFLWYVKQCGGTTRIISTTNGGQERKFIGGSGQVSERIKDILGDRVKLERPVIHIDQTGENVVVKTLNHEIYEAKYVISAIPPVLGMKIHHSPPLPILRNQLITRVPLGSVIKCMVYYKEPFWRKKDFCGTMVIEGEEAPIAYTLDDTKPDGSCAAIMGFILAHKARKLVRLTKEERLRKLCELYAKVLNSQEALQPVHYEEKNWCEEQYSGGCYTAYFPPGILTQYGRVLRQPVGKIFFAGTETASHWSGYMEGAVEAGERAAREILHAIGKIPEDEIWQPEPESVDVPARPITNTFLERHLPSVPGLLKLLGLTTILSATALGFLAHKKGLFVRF
Description: Inhibition of mitochondrial MAO-B in rat liver homogenates using [14C]-phenylethylamine as substrate preincubated for 30 mins by liquid scintillation counting

[2] = molecular target: T2, Acetylcholinesterase (Electrophorus electricus, UniProt O42275)
T2 sequence (O42275 whole entry): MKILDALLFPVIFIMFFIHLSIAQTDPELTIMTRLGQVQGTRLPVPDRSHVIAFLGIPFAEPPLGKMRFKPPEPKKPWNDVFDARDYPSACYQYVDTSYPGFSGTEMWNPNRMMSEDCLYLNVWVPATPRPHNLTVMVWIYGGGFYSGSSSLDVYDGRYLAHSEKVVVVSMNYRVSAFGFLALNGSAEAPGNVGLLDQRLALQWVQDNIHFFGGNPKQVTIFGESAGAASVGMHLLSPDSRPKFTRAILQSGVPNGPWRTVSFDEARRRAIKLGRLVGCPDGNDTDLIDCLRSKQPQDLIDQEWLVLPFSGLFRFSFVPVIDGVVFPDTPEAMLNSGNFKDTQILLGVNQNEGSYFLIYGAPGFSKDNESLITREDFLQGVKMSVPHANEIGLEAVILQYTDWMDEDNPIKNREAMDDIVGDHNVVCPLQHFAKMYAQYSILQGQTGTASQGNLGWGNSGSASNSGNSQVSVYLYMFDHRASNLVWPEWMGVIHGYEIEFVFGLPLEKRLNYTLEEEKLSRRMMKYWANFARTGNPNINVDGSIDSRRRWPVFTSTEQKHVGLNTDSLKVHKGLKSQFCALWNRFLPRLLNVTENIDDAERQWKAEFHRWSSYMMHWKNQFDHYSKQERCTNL
Description: Inhibition of electric eel AChE using acetylthiocholine iodide as substrate after 15 mins by Ellman's method

[3] = molecular target: Cholinesterase (Homo sapiens, UniProt P06276); experiment: Inhibition of human serum BuChE using butyrylthiocholine iodide as substrate by Ellman's method
Sequence of Cholinesterase (P06276 whole entry): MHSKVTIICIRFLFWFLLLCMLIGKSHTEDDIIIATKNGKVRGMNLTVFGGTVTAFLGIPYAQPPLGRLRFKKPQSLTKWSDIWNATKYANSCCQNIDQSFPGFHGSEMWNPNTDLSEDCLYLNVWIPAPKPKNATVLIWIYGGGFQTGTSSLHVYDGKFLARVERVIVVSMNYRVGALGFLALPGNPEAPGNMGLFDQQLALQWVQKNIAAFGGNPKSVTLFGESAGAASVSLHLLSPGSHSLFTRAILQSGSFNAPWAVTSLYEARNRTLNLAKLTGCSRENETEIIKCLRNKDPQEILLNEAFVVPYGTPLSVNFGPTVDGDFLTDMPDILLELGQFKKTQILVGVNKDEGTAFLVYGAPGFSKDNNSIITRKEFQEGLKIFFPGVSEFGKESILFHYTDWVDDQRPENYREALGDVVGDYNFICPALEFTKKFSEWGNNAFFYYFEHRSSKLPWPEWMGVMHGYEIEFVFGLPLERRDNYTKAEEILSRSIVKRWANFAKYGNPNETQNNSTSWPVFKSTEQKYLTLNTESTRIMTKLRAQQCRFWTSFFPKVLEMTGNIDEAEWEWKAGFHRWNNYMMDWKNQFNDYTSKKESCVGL

[4] = molecular target: Acetylcholinesterase (Homo sapiens, UniProt P22303); experiment: Inhibition of human recombinant AChE using acetylthiocholine iodide as substrate by Ellman's method
Sequence of Acetylcholinesterase (Homo sapiens, UniProt P22303) (P22303 whole entry): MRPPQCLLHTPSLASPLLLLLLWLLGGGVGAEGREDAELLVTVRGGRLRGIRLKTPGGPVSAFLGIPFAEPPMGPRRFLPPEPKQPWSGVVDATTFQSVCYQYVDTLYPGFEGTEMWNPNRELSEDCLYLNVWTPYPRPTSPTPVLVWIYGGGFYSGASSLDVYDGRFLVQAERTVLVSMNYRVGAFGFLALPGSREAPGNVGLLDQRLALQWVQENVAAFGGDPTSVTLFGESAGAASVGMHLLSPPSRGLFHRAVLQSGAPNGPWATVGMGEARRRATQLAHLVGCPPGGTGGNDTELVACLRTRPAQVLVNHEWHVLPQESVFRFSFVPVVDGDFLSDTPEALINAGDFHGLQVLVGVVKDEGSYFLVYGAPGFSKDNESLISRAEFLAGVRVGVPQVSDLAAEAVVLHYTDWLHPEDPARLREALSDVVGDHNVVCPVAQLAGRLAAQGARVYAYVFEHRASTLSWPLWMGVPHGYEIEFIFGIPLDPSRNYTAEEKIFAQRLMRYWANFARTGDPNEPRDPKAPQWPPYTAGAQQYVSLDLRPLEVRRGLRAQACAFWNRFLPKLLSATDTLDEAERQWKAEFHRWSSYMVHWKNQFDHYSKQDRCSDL

[5] = molecular target: T3, Amine oxidase [flavin-containing] A (Rattus norvegicus, UniProt P21396); experiment: biochemical
T3 sequence (P21396 whole entry): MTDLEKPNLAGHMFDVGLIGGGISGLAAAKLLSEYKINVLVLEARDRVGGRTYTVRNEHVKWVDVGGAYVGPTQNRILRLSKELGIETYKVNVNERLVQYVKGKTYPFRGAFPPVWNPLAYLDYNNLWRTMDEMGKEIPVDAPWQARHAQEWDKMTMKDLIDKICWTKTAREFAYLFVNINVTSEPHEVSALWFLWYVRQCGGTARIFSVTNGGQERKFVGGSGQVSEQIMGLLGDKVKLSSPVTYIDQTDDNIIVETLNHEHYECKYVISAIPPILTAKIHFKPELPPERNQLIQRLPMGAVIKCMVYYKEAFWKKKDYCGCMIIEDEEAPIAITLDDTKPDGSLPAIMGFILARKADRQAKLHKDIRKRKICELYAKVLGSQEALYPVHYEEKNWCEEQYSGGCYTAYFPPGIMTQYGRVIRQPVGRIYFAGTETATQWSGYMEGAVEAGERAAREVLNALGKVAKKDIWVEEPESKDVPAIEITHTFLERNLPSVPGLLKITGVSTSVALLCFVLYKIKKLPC
Description: Inhibition of mitochondrial MAO-A in rat liver homogenates using [14C]-(5-hydroxy-triptamine) as substrate preincubated for 30 mins by liquid scintillation counting

[6] = molecular target: T2, Acetylcholinesterase; experiment: Non-competitive inhibition of electric eel AChE using acetylthiocholine as substrate by Lineweaver-Burk plot analysis
[7] = molecular target: T4, Butyrylcholinesterase (Equus caballus, UniProt Q9N1N9)
T4 sequence (Q9N1N9 whole entry): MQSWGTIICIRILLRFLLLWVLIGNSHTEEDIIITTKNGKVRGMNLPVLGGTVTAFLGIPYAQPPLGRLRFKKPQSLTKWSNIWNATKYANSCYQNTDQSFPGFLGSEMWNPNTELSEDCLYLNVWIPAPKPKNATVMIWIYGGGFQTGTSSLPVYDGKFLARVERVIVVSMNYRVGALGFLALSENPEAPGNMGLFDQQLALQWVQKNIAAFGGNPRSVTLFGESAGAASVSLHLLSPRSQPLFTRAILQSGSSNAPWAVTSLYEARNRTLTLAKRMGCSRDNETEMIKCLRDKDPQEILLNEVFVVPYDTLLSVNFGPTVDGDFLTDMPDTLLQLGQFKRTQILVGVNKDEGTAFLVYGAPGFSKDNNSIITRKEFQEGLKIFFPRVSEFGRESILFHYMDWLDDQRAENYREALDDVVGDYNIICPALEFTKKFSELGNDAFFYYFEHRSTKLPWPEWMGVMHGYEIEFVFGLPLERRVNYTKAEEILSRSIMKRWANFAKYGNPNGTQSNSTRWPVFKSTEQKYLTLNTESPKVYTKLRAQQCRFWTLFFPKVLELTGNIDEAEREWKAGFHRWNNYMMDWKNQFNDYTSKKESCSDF
Description: Inhibition of equine serum BChE using butyrylthiocholine iodide as substrate after 15 mins by Ellman's method

[8] = molecular target: T4, Butyrylcholinesterase; experiment: Competitive inhibition of equine serum BChE using acetylthiocholine as substrate by Lineweaver-Burk plot analysis

## C#CCN1CCc2nc3nc(N4CCCC4)c(C#N)cc3c(N)c2C1
[1]
  IC50: 357 µM
[2]
  IC50: 0.025 µM
[3]
  IC50: 82 µM
[4]
  IC50: 0.65 µM
[5]
  IC50: 618 µM
[6]
  Ki: 0.065 µM
[7]
  IC50: 27 µM

## C#CCN(C)Cc1cc2cc(OCc3ccccc3)ccc2n1C
[2]
  IC50: > 100 µM
[7]
  IC50: > 100 µM

## C#CCN1CCc2nc3nc(OC)c(C#N)cc3c(N)c2C1
[1]
  IC50: > 100 µM
[2]
  IC50: 0.54 µM
[5]
  IC50: 495 µM
[7]
  IC50: > 100 µM

## C#CCN1CCc2nc3ccccc3c(N)c2C1
[1]
  IC50: 617 µM
[2]
  IC50: 1.5 µM
[5]
  IC50: 241 µM
[7]
  IC50: 6.6 µM

## C#CCN1CCc2nc3nc(Cl)c(C#N)cc3c(N)c2C1
[1]
  IC50: 660 µM
[2]
  IC50: 1.4 µM
[5]
  IC50: 1050 µM
[7]
  IC50: > 100 µM

## C#CCN1CCc2nc3nc(N4CCCCC4)c(C#N)cc3c(N)c2C1
[1]
  IC50: 296 µM
[2]
  IC50: 0.066 µM
[5]
  IC50: 330 µM
[7]
  IC50: 10 µM

## CC#CCN(C)Cc1cc2cc(OCc3ccccc3)ccc2n1C
[2]
  IC50: > 100 µM
[7]
  IC50: > 100 µM

## CC#CCN(C)Cc1cc2cc(OCc3ccccc3)ccc2[nH]1
[8]
  Ki: 7.1 µM
[2]
  IC50: > 100 µM
[7]
  IC50: 7 µM

## C#CCN1CCc2nc3nc(N(C)C)c(C#N)cc3c(N)c2C1
[1]
  IC50: 281 µM
[2]
  IC50: 0.029 µM
[5]
  IC50: 1000 µM
[7]
  IC50: > 100 µM

## CNCc1cc2cc(OCc3ccccc3)ccc2n1C
[1]
  IC50: 44.1 µM
[2]
  IC50: > 100 µM
[5]
  IC50: 99.3 µM
[7]
  IC50: 11 µM

## C#CCN(C)Cc1cc2cc(OCc3ccccc3)ccc2[nH]1
[2]
  IC50: > 100 µM
[7]
  IC50: 22 µM

## C#CCNCc1cc2cc(OCc3ccccc3)ccc2[nH]1
[1]
  IC50: 0.022 µM
[2]
  IC50: > 100 µM
[7]
  IC50: 43 µM

## C=C=CCN(C)Cc1cc2cc(OCc3ccccc3)ccc2n1C
[2]
  IC50: > 100 µM
[7]
  IC50: 14 µM
